Results: patent publication US20110172217A1, “RING-FUSED MORPHOLINE DERIVATIVE HAVING PI3K-INHIBITING ACTIVITY” (Shionogi & Co., Ltd., priority 2008, published 2011)

Molecular target: T1, PI-3 kinase γ (Homo sapiens, UniProt P48736)
Assay: PI3Kγ inhibitory activity, PI3-kinase HTRF assay (inhibition ratio)
Assay type: biochemical
Conditions: 0.5 h, compound at 50 μmol/L
Protocol: For each compound synthesized in the above Examples, PI3Kγ inhibitory activity was measured.
The PI3Kγ inhibitory activity of a compound was evaluated using PI3-kinase HTRF™ assay (Millipore) according to the following procedure:
To each well of a testing plate, 5 μL of a compound solution containing 10% DMSO (200 μmol/L or 40 μmol/L as the concentration of the compound), 5 μL of a substrate solution (40 μmol/L phosphatidylinositol (4,5)-bisphosphate, 20 mmol/L MgCl2, 10 mmol/L DTT), and 5 μL of a enzyme solution (80 μg/mL PI-3 kinase γ, 10 mmol/L MgCl2, 5 mmol/L DTT) were added, and then allowed to stand for 10 minutes.
Then, 5 μL of a reaction solution (40 μmol/L ATP, 10 mmol/L MgCl2, 5 mmol/L DTT) was added thereto. After reacting for 30 minutes at room temperature, 5 μL of a solution containing EDTA and biotinylated phosphatidylinositol (3,4,5)-triphosphate were added to quench the reaction.
5 μL of a detection reagent containing a europium-labeled anti-GST antibody, the GST-tagged PH domain, and allophycocyanin-labeled streptavidin was added thereto. After 18 hours, HTRF (excitation wavelength: 330 nm, measured wavelengths: 620 nm and 665 nm) was measured.
HTRF ratio was defined as the value obtained by dividing the amount of fluorescence obtained at the measured wavelength 665 nm by the amount of fluorescence obtained at 620 nm. The HTRF ratio in the absence of a compound was defined as 100% activity and the HTRF ratio in the absence of PI-3 kinase γ was defined as 0% activity to calculate an inhibition ratio which was defined as the PI3Kγ inhibitory activity of a compound at 50 μmol/L or 10 μmol/L.

T1 sequence (P48736 whole entry): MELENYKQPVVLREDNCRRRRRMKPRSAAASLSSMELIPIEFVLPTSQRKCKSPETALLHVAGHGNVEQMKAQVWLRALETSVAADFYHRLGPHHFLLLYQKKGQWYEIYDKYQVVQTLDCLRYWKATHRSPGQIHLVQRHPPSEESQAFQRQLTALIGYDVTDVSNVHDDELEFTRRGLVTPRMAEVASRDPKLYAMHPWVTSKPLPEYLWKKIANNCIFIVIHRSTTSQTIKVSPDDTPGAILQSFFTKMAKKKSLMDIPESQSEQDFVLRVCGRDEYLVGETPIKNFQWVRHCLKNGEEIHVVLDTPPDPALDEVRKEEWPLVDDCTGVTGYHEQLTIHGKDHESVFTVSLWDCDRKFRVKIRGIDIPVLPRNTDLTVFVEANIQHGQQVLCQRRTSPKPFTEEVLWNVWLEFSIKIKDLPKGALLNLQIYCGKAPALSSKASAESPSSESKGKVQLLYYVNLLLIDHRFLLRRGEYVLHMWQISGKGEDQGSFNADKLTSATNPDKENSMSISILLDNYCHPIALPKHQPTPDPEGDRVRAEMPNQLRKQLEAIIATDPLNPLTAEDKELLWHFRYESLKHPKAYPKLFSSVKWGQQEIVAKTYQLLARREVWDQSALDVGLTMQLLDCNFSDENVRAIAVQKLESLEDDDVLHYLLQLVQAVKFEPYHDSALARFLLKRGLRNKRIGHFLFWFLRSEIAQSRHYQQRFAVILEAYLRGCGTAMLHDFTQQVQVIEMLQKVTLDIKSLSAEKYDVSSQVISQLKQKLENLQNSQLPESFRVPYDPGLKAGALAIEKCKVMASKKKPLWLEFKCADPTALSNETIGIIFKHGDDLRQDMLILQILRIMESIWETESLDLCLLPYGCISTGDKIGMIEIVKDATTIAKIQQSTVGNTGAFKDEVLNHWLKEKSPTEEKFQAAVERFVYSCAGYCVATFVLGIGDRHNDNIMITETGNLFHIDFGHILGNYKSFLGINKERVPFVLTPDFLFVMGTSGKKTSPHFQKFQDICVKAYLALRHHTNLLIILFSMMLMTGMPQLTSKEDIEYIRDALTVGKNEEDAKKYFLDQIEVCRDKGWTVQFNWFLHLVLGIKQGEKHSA

SMILES | inhibition at 50 µM
O=C(O)c1ccc(-c2ccc3c(n2)N(C(=O)Nc2cccnc2)CCO3)cc1 [Compound I-208] | ≥ 95%
COc1ccc(-c2ccc3c(n2)N(C2=NC(=O)C(C)(C)S2)CCO3)cc1OC [Compound I-330] | 95%
CCOC(=O)CC(=O)Nc1ccc2c(n1)N(C(=O)Nc1ccccc1)CCO2 [Compound I-122] | 87%
O=C(Nc1ccccc1)N1CCOc2cc(Nc3ccccc3)cnc21 [Compound I-132] | 83%
O=C(Nc1ccccc1)N1CCOc2cc(-c3cc4ccccc4[nH]3)cnc21 [Compound I-282] | 74%
O=C(Nc1ccccc1)N1CCOc2cc(-c3ccnn3C3CCCCO3)cnc21 (stereo not shown) [Compound I-250] | 91%
CC(C)(C)OC(=O)c1cccc(Nc2ccc3c(n2)N(C(=O)Nc2ccccc2)CCO3)c1 [Compound I-142] | 78%
O=C(O)c1cncc(-c2ccc3c(n2)N(C(=O)Nc2ccccc2)CCO3)c1 [Compound I-184] | ≥ 95%
Cc1n[nH]cc1-c1ccc2c(n1)N(C(=O)Nc1ccccc1)CCO2 [Compound I-188] | ≥ 95%
O=C(O)c1ccc(-c2ccc3c(n2)OCCN3C(=O)Nc2ccccc2C(=O)O)cc1 [Compound I-259] | ≥ 95%
O=C(Nc1ccccc1)N1CCOc2cc(NCc3ccccc3)cnc21 [Compound I-131] | ≥ 95%
O=C(Nc1ccccc1)N1CCOc2cc(-c3cn[nH]c3)cnc21 [Compound I-251] | ≥ 95%
CC(C)(C)OC(=O)c1ccc(Nc2ccc3c(n2)N(C(=O)Nc2ccccc2)CCO3)cc1 [Compound I-143] | ≥ 95%
CC(C)(C)OC(=O)CCNC(=O)c1cnc2c(c1)OCCN2C(=O)Nc1ccccc1 [Compound I-305] | 84%
O=C(NC1CCCCC1)N1CCOc2cccnc21 [Compound I-17] | 88%
COc1ccc(NC(=O)N2CCOc3ccc(Nc4ccc(C(=O)O)cc4)nc32)cc1OC [Compound I-210] | ≥ 95%
O=C(O)CC(=O)Nc1cnc2c(c1)OCCN2C(=O)Nc1ccccc1 [Compound I-161] | 88%
O=C(O)CNC(=O)c1ccc(Nc2ccc3c(n2)N(C(=O)Nc2ccccc2)CCO3)cc1 [Compound I-278] | ≥ 95%
O=C(Nc1ccccc1)N1CCOc2ccc(-c3nccs3)nc21 [Compound I-83] | 92%
CC(C)(C)OC(=O)NCCOc1ccc(Nc2ccc3c(n2)N(C(=O)Nc2ccccc2)CCO3)cc1 [Compound I-214] | ≥ 95%
CC(C)(C)OC(=O)N1CCN(c2cnc3c(c2)OCCN3C(=O)Nc2ccccc2)CC1 [Compound I-244] | 80%
O=C(O)C1CCN(c2ccc3c(n2)N(C(=O)Nc2ccccc2)CCO3)CC1 [Compound I-220] | ≥ 95%
COC(=O)c1ccc(Nc2cnc3c(c2)OCCN3C(=O)Nc2ccccc2)cc1OC [Compound I-327] | 86%
Cc1noc(C)c1-c1ccc2c(n1)N(C(=O)Nc1ccccc1)CCO2 [Compound I-100] | ≥ 95%
CCOC(=O)CNC(=O)Nc1cnc2c(c1)OCCN2C(=O)Nc1ccccc1 [Compound I-238] | 83%
O=C(O)c1ccc(-c2cnc3c(c2)OCCN3C(=O)Nc2ccccc2)cc1 [Compound I-111] | 87%

Now from value to compound:

inhibition at 50 µM | SMILES
≥ 95% | O=C(O)COc1ccccc1Nc1ccc2c(n1)N(C(=O)Nc1ccccc1)CCO2 [Compound I-248]
≥ 95% | O=C(O)c1ccc(Nc2ccc3c(n2)N(C(=O)Nc2ccccc2)CCO3)cc1 [Compound I-146]
93% | O=C(O)c1ccc(-c2ccc3c(n2)N(C(=O)Nc2ccccc2)CCO3)cc1 [Compound I-51]
≥ 95% | O=C(O)c1cccc(NC(=O)c2ccc3c(n2)N(C(=O)Nc2ccccc2)CCO3)c1 [Compound I-126]
87% | COCOc1ccc(C(=O)O)cc1NC(=O)c1ccc2c(n1)N(C(=O)Nc1ccccc1)CCO2 [Compound I-218]
82% | CN(c1ccc(C(=O)O)cc1)c1ccc2c(n1)N(C(=O)Nc1ccccc1)CCO2 [Compound I-284]
94% | O=C(Nc1ccccc1)N1CCOc2ccc(-c3cccnc3)nc21 [Compound I-102]
≥ 95% | CCOC(=O)CCc1ccc2c(n1)N(C(=O)Nc1ccccc1)CCO2 [Compound I-92]
≥ 95% | CC(C)(C)OC(=O)NCCOc1cc(C(=O)O)ccc1Nc1ccc2c(n1)N(C(=O)Nc1ccccc1)CCO2 [Compound I-226]
≥ 95% | O=C(Nc1ccccc1)N1CCOc2ccc(Nc3cccnc3)nc21 [Compound I-181]
≥ 95% | CC(C)(C)OC(=O)COc1ccccc1Nc1ccc2c(n1)N(C(=O)Nc1ccccc1)CCO2 [Compound I-242]
≥ 95% | O=C(O)CCc1ccc2c(n1)N(C(=O)Nc1ccccc1)CCO2 [Compound I-94]
74% | O=C(Nc1ccccc1)N1CCOc2ccc(/C=C/c3ccccc3)nc21 [Compound I-60]
≥ 95% | NCCOc1ccccc1NC(=O)c1ccc2c(n1)N(C(=O)Nc1ccccc1)CCO2 [Compound I-130]
≥ 95% | O=C(O)Cc1cccc(-c2ccc3c(n2)N(C(=O)Nc2ccccc2)CCO3)c1 [Compound I-152]
79% | COCOc1ccc(C(=O)OC)cc1Nc1ccc2c(n1)N(C(=O)Nc1ccccc1)CCO2 [Compound I-179]
89% | O=C(Nc1ccccc1)N1CCOc2ccc(-c3ccc(CO)cc3)nc21 [Compound I-97]
≥ 95% | O=C(O)c1ccccc1Nc1cnc2c(c1)OCCN2C(=O)Nc1ccccc1 [Compound I-137]
76% | O=C(O)c1cccc(C(=O)Nc2ccc3c(n2)N(C(=O)Nc2ccccc2)CCO3)c1 [Compound I-124]
≥ 95% | NCCOc1ccc(C(=O)O)cc1NC(=O)c1ccc2c(n1)N(C(=O)Nc1ccccc1)CCO2 [Compound I-118]

Molecular target: T1, PI-3 kinase γ
Assay: PI3Kγ inhibitory activity (Ki value)
Assay type: biochemical
Conditions: test ATP concentration 10 μmol/L
Protocol: The PI3Kγ inhibitory activity (Ki value) of a compound was evaluated according to the following procedure:
5 μL of a compound solution containing 10% DMSO and 200 μmol/L of a compound was changed to 5 μL of a compound solution containing 10% DMSO and either 200, 64, 20, 6.4, 2, 0.64, or 0.20 μmol/L of the compound (optionally, this is diluted to a lower concentration). Using a method similar to the method for measuring PI3Kγ inhibitory activity, inhibition ratios were measured in the presence of the compound at 50, 16, 5, 1.6, 0.5, 0.16, and 0.05 μmol/L (optionally, a lower concentration). Then an IC50 value was calculated by a logistic approximation method or the linear regression method using two concentrations that across 50% inhibition. Separately, the ATP concentration in the reaction solution (40 μmol/L ATP, 10 mmol/L MgCl2, 5 mmol/L DTT) at the time of the start of a reaction in the absence of the compound was changed to 80, 40, 20, 10, 5, 2.5, 1.25, or 0.625 μmol/L. Then, HTRF ratios were measured by a similar method. The value obtained by subtracting the HTRF ratio at each ATP concentration from the HTRF ratio in the absence of PI-3 kinase γ was defined as the value obtained by multiplying reaction rate (v) at each ATP concentration with a constant. The Michaelis-Menten constant Km was then calculated by the Lineweaver-Burk plot method. The Ki value of a compound was calculated by the following formula.
Ki=IC50 value/(1+10 μmol/L (test ATP concentration)/Km(μmol/L))

SMILES | Ki
O=C(O)c1ccc(-c2ccc3c(n2)N(C(=O)Nc2cccnc2)CCO3)cc1 [Compound I-208] | 31 nM
COc1ccc(-c2ccc3c(n2)N(C2=NC(=O)C(C)(C)S2)CCO3)cc1OC [Compound I-330] | 27 nM

Now from value to compound:

Ki | SMILES
25 nM | O=C(O)COc1ccccc1Nc1ccc2c(n1)N(C(=O)Nc1ccccc1)CCO2 [Compound I-248]
46 nM | O=C(O)c1ccc(Nc2ccc3c(n2)N(C(=O)Nc2ccccc2)CCO3)cc1 [Compound I-146]

Test system: not listed separately
Assay: Solubility test in artificial intestinal juice pH 6.8
Assay type: physicochemical
Conditions: kinetic from dmso stock, artificial intestinal juice pH 6.8, 1% DMSO, 25° C.
Protocol: The solubility of a compound was determined under a condition in which 1% DMSO was added. 10 mmol/L compound solution was prepared using DMSO, and then 6 μL of the compound solution was added to 594 μL of artificial intestinal juice in pH 6.8 (to 250 mL of 0.2 mol/L potassium dihydrogen phosphate reagent solution was added 118 mL of 0.2 mol/L NaOH reagent solution and water to provide a final volume of 1000 mL). After standing at 25° C. for 16 hours, the mixed solution was filtered with suction. The filtrate was diluted twice with methanol/water (1/1), and then a concentration in the filtration was measured with HPLC or LC/MS/MS by the absolute calibration method.

solubility at 16 h | SMILES
> 50 µM | O=C(O)COc1ccccc1Nc1ccc2c(n1)N(C(=O)Nc1ccccc1)CCO2 [Compound I-248]

Test system: not listed separately
Assay: Metabolic stability test, pooled human liver microsome
Assay type: in vitro ADME
Conditions: 2 μmol/L compound; human liver microsome 0.5 mg protein/mL, NADPH, 37° C.
Protocol: After a subject compound was reacted for a certain time using a commercially available pooled human liver microsome, a reacted sample and an unreacted sample are compared to calculate a survival ratio, and then the degree of metabolism in the liver was evaluated.
0.2 mL of a buffer solution (50 mmol/L of Tris-HCl in pH 7.4, 150 mmol/L of potassium chloride, and 10 mmol/L of magnesium chloride) containing a human liver microsome of 0.5 mg protein/mL was reacted in the presence of 1 mmol/L NADPH at 37° C. for 0 or 30 minutes (oxidative reaction). After reacting, 50 μL of the reaction solution was added to 100 μL of a solution of methanol/acetonitrile (1/1 (v/v)), mixed, and then centrifuged at 3000 rpm for 15 minutes. The test compound in the supernatant was quantitated with LC/MS/MS. The amount of the compound at a reaction time of 0 minute was defined as 100% and, based on that, the percentage of the test compound remained after reacting for 30 minutes was calculated.

percentage of test compound remained after reacting for 30 minutes | SMILES
100% | O=C(O)c1ccc(Nc2ccc3c(n2)N(C(=O)Nc2ccccc2)CCO3)cc1 [Compound I-146]
